Experiments:
OVCAR5 cells = assay: TIRF microscopy of β1 integrin distribution; format: cell-based, human; settings: 1 μM or 5 μM, 1 h pre-treatment
Protocol: For assessing the potential effect of SMIs on 01 integrin distribution at the interface between cells and the FN matrix, OVCAR5 cells were treated for 1 h with either TG53 or MT-4 in serum-free media at 37° C., and then seeded onto FN-coated glass bottom microwell dishes (MatTek Corp. Ashland, Mass.) for 45 minutes at 37° C. Samples were fixed in PFA and blocked in 1% BSA. 01 integrin receptors were detected by using anti-01 integrin antibodies (clone P5D2, Chemicon, #MAB1959, 1:100) and AlexaFluor 568-conjugated anti-mouse secondary antibodies, while actin was labeled using Alexa Fluor 488-conjugated phalloidin. Cells were imaged with a Nikon Ti2 Microscope equipped with a Photometrics Prime 95B camera using a Nikon Plan Apo 100×1.49 NA TIRF objective.

Solubility assay = format: physicochemical; settings: pH=7.4 PBS buffer, 2% DMSO
Protocol: Solubility was measured in a 384-well plate using a Synergy HTX plate reader. Starting with a 50 mM DMSO stock solution of test compounds, dilutions were made from 1 to 500 μM final concentrations using acetonitrile, keeping the final DMSO concentration at 2%. UV absorption was measured at 254 nm and absorbance versus concentration was plotted to give a standard curve. A DMSO stock of test compound was also diluted with pH=7.4 PBS buffer to give a final concentration of 250 μM containing 2% DMSO. This mixture was stirred on a plate shaker for 1 hr after which it was centrifuged at 2500 rpm for 3 min. 50 μL of the supernatant was removed, transferred to a 384-well plate, and the UV absorbance at 254 nm was measured. Absorbance of the test compound in PBS buffer was analyzed with the standard curve to determine solubility.

[1] = test system: OVCAR5 cells attachment onto FN; assay: Early attachment assay with IF staining; format: cell-based, human; settings: 1 μM, 72 hours pre-treatment, 30 minutes after seeding
Protocol: OVCAR5 cells were seeded(1×10^5 cells/well) in 6-well plates (Denville Scientific) and treated for 72 hrs with 1 μM MT-4, TG53 or vehicle control (DMSO). After drug exposure, cells were detached using Cellstripper (cellgro, #25-056-CI, CORNING, Manassas, Va., USA), centrifuged, and counted. Before seeding for either confocal microscopy or western blotting, they were incubated in serum free media in the presence of drugs for 15-90 minutes, as stated in the figure legends.
In order to analyze cell adhesion complex proteins expression and localization upon early attachment, cells were treated as stated above and then seeded onto FN-coated cover slips for 30 minutes at 37° C. Samples were fixed in 4% p-formaldehyde (PFA) and permeabilized with 0.2% Triton-X-100. After blocking, focal contacts were identified by using anti-vinculin antibodies, activation of integrins signaling pathway was assessed by antibodies against phosphorylated focal adhesion kinase (FAK), while actin cytoskeleton was labeled by Alexa Fluor 488-conjugated phalloidin (Life Technologies, #A12379). Nuclei were stained with 1:10000 Hoechst (Thermo Scientific) and specimens were mounted in Prolong Gold anti-fadereagent (Life Technologies). Cells were analyzed by laser scanning using a Nikon A1RGaAsPConfocal Laser Microscope. For co-localization analyses, SKOV3 cells were treated with DMSO (control) or TG53 (1 μM) and plated on FN-coated chamber slides (BD Biosciences) for 72 hrs. IF analysis was performed as previously described (Condello et al., 2013b). Briefly, after fixation, permeabilization and blocking, cells were incubated overnight with p-FAK (Y576/577), c-Src, p-Src (Y416), integrin β1 or TG2 primary antibodies in blocking buffer at 4° C., followed by 1 h incubation with Cy5-conjugated anti-mouse secondary antibody (1:500; Zymed Laboratories; South San Francisco, Calif., USA) or Alexa Fluor 488 anti-rabbit secondary antibody (1:1000; Molecular Probes, Eugene, Oreg., USA) at RT. Isotype-specific IgG was used as a negative control. Nuclei were visualized by 4′,6-diamidino-2-phenylindole (DAPI) staining (Vectashield; Vector Laboratories, Burlingame, Calif., USA). Analysis was done using an LSM 510 META confocal multiphoton microscope system (Carl Zeiss Inc., Thomwood, N.Y., USA) under UV excitation at 630 nm (for Cy5), 488 nm (for Alexa Fluor 488), and 340 nm (for DAPI) and using a 60× magnification objective. Colocalization percentage was calculated by normalizing the pixels corresponding to Cy5 or Alexa Fluor 488 emissions to DAPI pixels in the same cell, followed by merging area of green with area of red and determination of average of overlap areas. A Student' t test was calculated to determine statistical significance of differences between drug treated and DMSO control treated cells.

Compound	β1 integrin distribution at the interface with FN (OVCAR5 cells)	solubility at 1 h (Solubility assay)	FAK phosphorylation (IF) [1]	number of focal contacts with FN-coated substrate (vinculin) [1]	solubility at 1 h (Solubility assay; aqueous buffer, kinetic from dmso stock)
COc1ccc(Cl)cc1C(=O)Nc1ccc(Nc2nc(C)cc(N(C)C)n2)cc1 [TG53]	modest displacement of integrin receptors towards the cell perimeter	<5 µM	decreased	decreased	–
Cc1cc(N(C)C)nc(Nc2ccc(NC(=O)Cc3ccccc3)cc2)n1 [MT-4]	enhanced 31 integrin transposition towards the extreme edge of the cell	–	decreased	decreased	91.5 µM

Reference: patent publication US20210276960A1, “INHIBITORS OF TISSUE TRANSGLUTAMINASE 2 (TG2) AND USES THEREOF” (Northwestern University, priority 2020, published 2021)
